This is an account of results in US20160331723A1, “PHARMACOLOGICAL TREATMENT OF ATTENTION DEFICIT AND/OR HYPERACTIVITY” (BIOCODEX, priority 2013, published 2016).

In data set [1] the test system is Spontaneously Hypertensive Rat (SHR). The data set can be described thus: Actimetry (opto-varimex), juvenile SHR rats. Type of data set: in vivo. Particulars: 200 mg/kg i.p., vs vehicle. As for the experimental part:
(§1) Juvenile (25-30 days old, 80-120 g) or adolescent (40-45 days old, 140-160 g) male Wistar SHR rats or the control strain Wistar kyoto (WKY) rats, from River Germany, were used in this study. They were housed 2 per cage (Techniplast ref. 1291), and maintained in a 12 h light/dark cycle (light ON at 7 AM). Food and water were provided ad libitum. Rats were acclimated to the animal facilities at least 5 days before testing started. The experiments were conducted in accordance with the European Recommendations (directive 86/609/EEC) for the use and care of laboratory animals.
(§2) Animals are placed in the opto-varimex system (Plexiglas arena, 42×42 cm, Columbus Instruments, Columbus, Ohio), an automated system to quantify their activity as horizontal or vertical movements. Animals are habituated to the behavioral room for one hour before the beginning of the test, illumination intensity is around 400 lux. Activity is recorded immediately after placing the animal in the system, forty five minutes after injection, for a one hour period. Animals are assigned to a test group and tested only once. […]
(§3) Data are represented as the mean±standard error of mean (S.E.M.). The difference between Stiripentol and vehicle treated rats, was assessed with an ANOVA or repeated measures ANOVA (one factor repetition). […]

For data set [2] the following is noted: several animal models; cited from earlier work.
The subject of data set [3] is Wistar kyoto (WKY) rats. The data set can be described thus: Open field test, juvenile WKY control rats. Type of data set: in vivo, rat. Particulars: 200 mg/kg i.p., second 10 minutes period, vs vehicle. As for the experimental part: as §1
Rats are placed in the middle of an open field (a closed arena of 1 m×1 m), and recorded with a videotracking system (Videotrack, Viewpoint S.A., Lyon France). The arena is separated in 9 equivalent zones on the analysis software. Illumination intensity is set around 30 lux. The number of rearings and zone changes is recorded during 2 consecutive 10 minutes periods. The test is started forty five minutes after vehicle or STP injection. For juvenile rats (around 25 days old, n=30 SHR rats, n=30 WKY rats), each rat was randomly assigned to a test group and tested once. […]
as §3

The subject of data set [4] is WKY (control) or SHR adolescent rats. The data set can be described thus: Grip test (muscular strength). Type of data set: in vivo, rat. Particulars: WKY and SHR rats (40-45 days old), 200 mg/kg i.p., 1 hour after administration, p=0.058, listed as STP. As for the experimental part:
The grip test measures the muscular strength of the animal. This test is used to identify myorelaxant properties of compounds. An electronic system is used (Bioseb) to measure the force developed by a rat grasping a T-shape bar with its forelimb. Five consecutive measures are taken, data are expressed as mean±standard error of mean. […] Measures are taken 60 minutes after intraperitoneal (i.p.) injection.
Stiripentol (batch 176, dissolved in 5% tween 80 in 0.9% NaCl) was administered i.p. at the dose of 200 mg/kg with an injection volume of 10 ml/kg.
Data are represented as the mean±standard error of mean (S.E.M.). The difference between Stiripentol and vehicle treated rats, was assessed with an ANOVA or repeated measures ANOVA (one factor repetition). Significance was set at p<0.05 (Sigma Stat, v3.5, SPSS, Chicago, USA).

Data set [5] relates to epilepsy seizures in children presenting with Dravet syndrome. Particulars: add-on therapy to valproate and clobazam; cited from earlier work.
Data set [6] deals with Wistar kyoto (WKY) rats. The data set can be described thus: Actimetry (opto-varimex), juvenile WKY control rats. The following applies: 200 mg/kg i.p., vs vehicle. Type of data set: in vivo, rat. As for the experimental part: as §1, §2, §3
Data set [7] has as its system Spontaneously Hypertensive Rat (SHR). Put plainly: Open field test, juvenile SHR rats. Type of data set: in vivo. The following applies: 200 mg/kg i.p., second 10 minutes period, vs vehicle, p<0.001.
From the text: The inventors have examined the potential new therapeutic application of Stiripentol (STP, Diacomit®) in attention deficit and hyperactivity disorder (ADHD). For this, the effect of an acute administration of Stiripentol, on hyperactivity in rats was studied. The model chosen for this study is the Spontaneously Hypertensive Rat (SHR), a rat model that has been described as a model for hyperactivity (Sagvolden et al. (1992) Behav. Neural. Biol. 58:103-112; Sagvolden et al. (2009) Neuropharmacology 57:619-626; Davids et al. (2003) Brain Res. Brain Res. Rev. 42:1-21) and three behavioral tests were run: an open field test, an actimetry test and a grip test.
Juvenile (25-30 days old, 80-120 g) or adolescent (40-45 days old, 140-160 g) male Wistar SHR rats or the control strain Wistar kyoto (WKY) rats, from River Germany, were used in this study. […]
Rats are placed in the middle of an open field (a closed arena of 1 m×1 m), and recorded with a videotracking system (Videotrack, Viewpoint S.A., Lyon France). […] The number of rearings and zone changes is recorded during 2 consecutive 10 minutes periods. […]
as §3

Regarding `CC(C)(C)C(O)/C=C/c1ccc2c(c1)OCO2` (racemic) [Stiripentol, 1-penten-3-ol,1-(1,3-benzodioxol)-4,4-dimethyl], the “rearing behavior in actimetry” value in data set [1] was “statistically decreases”. In addition, in data set [2], the anticonvulsant activity result is on record as “shown anticonvulsant activity”. The “rearing activity in open field” value was “no effect” in data set [3] and “significantly decreases” in data set [7] (SHR juvenile rats (25 days old)). Moreover, the “strength developed in the grip test (myorelaxant effect)” value in data set [4] is on record as “no significant effect”. Further, in data set [5], the “efficacy in controlling epilepsy seizures (responder rate)” value is listed as “demonstrated”. The “locomotor (ambulatory) activity in actimetry” value in data set [6] (WKY control juvenile rats, one hour recording) is “no effect”. Further, the “number of rearings in actimetry” value in data set [6] (WKY juvenile rats) is given as “no effect”. Moreover, the “number of zone changes in open field” value in data set [7] (SHR juvenile rats) is on record as “decreased”.
